{
  "source": "patent US20090074790A1",
  "about": "“Methods for measuring transforming growth factor beta (TGF-beta) receptor signaling activity and uses thereof” (priority 2004, published 2009)",
  "test_system": "human keratinocytes",
  "experiment": "Growth of human keratinocytes (HKc/HPV16), TGFβ-induced growth arrest",
  "conditions": "read-out: IC50 of growth inhibition of human keratinocytes, dose-dependent",
  "data": [
    {"substance": "TGFβ: Recombinant human TGFβ1 purchased from Austral Biologicals", "values": [
      {"measurement": "IC50", "value": "~5", "unit": "pM"}
    ]}
  ]
}
